{"source": "patent US12679837B2", "about": "“Aminopyrimidine compound as CDK2/4/6 triple inhibitor” (CISEN PHARMACEUTICAL CO., LTD, priority 2019, dated 2026)", "key": {"HCC1806 cells": {"tested_on": "HCC1806 cells", "experiment": "HCC1806 cell activity test (CyQUANT)", "assay_type": "cell-based", "details": "Homo sapiens, 168 h, 7 days, read-out: Antiproliferative activity (IC50) HCC1806", "description": "Experimental materials: RPMI-1640 medium, fetal bovine serum, penicillin/streptomycin antibiotics were purchased from Vicente. CyQUANT Cell Proliferation Assays (Cell proliferation assay kit) reagents were purchased from ThermoFisher. The HCC1806 cell line was purchased from Cobioer Biosciences Co., Ltd. Nivo Multilabel Analyzer (PerkinElmer).\nExperimental method: HCC1806 cells were seeded in a white 96-well plate, 80 μL of cell suspension per well, which contained 3000 HCC1806 cells. The cell plate was incubated overnight in a carbon dioxide incubator. The compounds to be tested were diluted 5-fold to the 9th concentration with a row gun, that is, from 10 mM to 25.6 nM, and a double-replicate well experiment was set up. 78 μL of medium was added to the middle plate, and then transferred 2 μL per well of the gradient diluted compound to the middle plate according to the corresponding position, mixed well and transferred 20 μL per well to the cell plate. […] After reaching the incubation time, the cell supernatant was removed, and the cell plate was placed in a −80° C. refrigerator for 1 hour, after which 100 μL of Cyquant reagent was added to each well, and a multi-label analyzer was used for reading. Another cell plate was prepared, and the signal value was read as the maximum value (Max value in the equation below) on the day of drug addition to participate in data analysis. […]"}, "CDK2/CyclinE1": {"target": "T1, CDK2/CyclinE1 (Homo sapiens, UniProt P24941)", "T1 construct": "purchased Promega", "experiment": "CDK2/CyclinE1 kinase activity test (ADP-Glo)", "assay_type": "biochemical", "details": "150 μM ATP, 25° C., 60 minutes; read-out: Enzyme activity data (IC50) CDK2/CyclinE1", "description": "Nivo Multilabel Analyzer (PerkinElmer).\n(§1) Experimental method: Kinase buffer dilution enzyme in the kit, substrate, adenosine triphosphate and inhibitor were used. The compounds to be tested were diluted 5-fold to the 8th concentration with a row gun, that is, from 50 μM to 0.65 nM, the concentration of DMSO was 5%, and a double-replicate well experiment was set up. […] The reaction system was placed at 25° C. and reacted for 60 minutes. After the reaction was complete, 5 μL of ADP-Glo reagent was added to each well, and the reaction was continued at 25° C. for 40 minutes. At the end of the reaction, 10 μL of kinase detection reagent was added to each well. After the reaction was continued at 25° C. for 30 minutes, the chemiluminescence was read by a multi-label analyzer with an integration time of 0.5 seconds.\n(§2) Using the equation (Sample−Min)/(Max−Min)×100% to convert the original data into inhibition rate, the IC50 value can be obtained by curve fitting with four parameters (obtained by the mode of log(inhibitor) vs. response—Variable slope in GraphPad Prism). Table 1 provides the enzymatic inhibitory activities of the compounds of the present invention on CDK2/CyclinA2, CDK2/CyclinE1, CDK4/CyclinD1, CDK6/CyclinD1, CDK9/CyclinT1."}, "CDK2/CyclinA2": {"target": "T2, CDK2/CyclinA2 (Homo sapiens, UniProt P24941)", "T2 construct": "purchased Promega", "experiment": "CDK2/CyclinA2 kinase activity test (ADP-Glo)", "assay_type": "biochemical", "details": "50 μM ATP, 25° C., 60 minutes; read-out: Enzyme activity data (IC50) CDK2/cyclinA", "description": "Experimental materials: CDK2/CyclinA2 kinase detection kit was purchased from Promega. Nivo Multilabel Analyzer (PerkinElmer).\nExperimental method: Kinase buffer dilution enzyme in the kit, substrate, adenosine triphosphate and inhibitor were used. The compounds to be tested were diluted 5-fold to the 8th concentration with a row gun, that is, from 50 μM to 0.65 nM, the concentration of DMSO was 5%, and a double-replicate well experiment was set up. 1 μL of each concentration gradient of inhibitor, 2 μL of CDK2/CyclinA2 enzyme (1.6 ng), and 2 μL of a mixture of substrate and ATP (50 μM of adenosine triphosphate, 0.1 μg/μL of substrate) were added to the microplate, and at this time, the final concentration gradient of compound was diluted from 10 μM to 0.13 nM. The reaction system was placed at 25° C. and reacted for 60 minutes. After the reaction was complete, 5 μL of ADP-Glo reagent was added to each well, and the reaction was continued at 25° C. for 40 minutes. At the end of the reaction, 10 μL of kinase detection reagent was added to each well. After the reaction was continued at 25° C. for 30 minutes, the chemiluminescence was read by a multi-label analyzer with an integration time of 0.5 seconds.\nas §2"}, "CDK9/CyclinT1": {"target": "T3, CDK9/CyclinT1 (Homo sapiens, UniProt P50750)", "T3 construct": "purchased Carna", "T3 sequence (P50750 whole entry)": "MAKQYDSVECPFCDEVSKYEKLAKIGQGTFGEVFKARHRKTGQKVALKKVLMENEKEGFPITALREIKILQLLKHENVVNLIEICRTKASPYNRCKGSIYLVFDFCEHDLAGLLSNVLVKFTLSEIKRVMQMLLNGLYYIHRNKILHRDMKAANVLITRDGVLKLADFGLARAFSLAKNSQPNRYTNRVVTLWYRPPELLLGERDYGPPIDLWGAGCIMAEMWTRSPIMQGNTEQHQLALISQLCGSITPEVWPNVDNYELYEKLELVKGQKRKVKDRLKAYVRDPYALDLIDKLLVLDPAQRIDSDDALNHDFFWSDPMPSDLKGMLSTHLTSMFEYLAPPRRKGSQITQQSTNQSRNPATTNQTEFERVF", "T3 sequence (O60563 whole entry partner)": "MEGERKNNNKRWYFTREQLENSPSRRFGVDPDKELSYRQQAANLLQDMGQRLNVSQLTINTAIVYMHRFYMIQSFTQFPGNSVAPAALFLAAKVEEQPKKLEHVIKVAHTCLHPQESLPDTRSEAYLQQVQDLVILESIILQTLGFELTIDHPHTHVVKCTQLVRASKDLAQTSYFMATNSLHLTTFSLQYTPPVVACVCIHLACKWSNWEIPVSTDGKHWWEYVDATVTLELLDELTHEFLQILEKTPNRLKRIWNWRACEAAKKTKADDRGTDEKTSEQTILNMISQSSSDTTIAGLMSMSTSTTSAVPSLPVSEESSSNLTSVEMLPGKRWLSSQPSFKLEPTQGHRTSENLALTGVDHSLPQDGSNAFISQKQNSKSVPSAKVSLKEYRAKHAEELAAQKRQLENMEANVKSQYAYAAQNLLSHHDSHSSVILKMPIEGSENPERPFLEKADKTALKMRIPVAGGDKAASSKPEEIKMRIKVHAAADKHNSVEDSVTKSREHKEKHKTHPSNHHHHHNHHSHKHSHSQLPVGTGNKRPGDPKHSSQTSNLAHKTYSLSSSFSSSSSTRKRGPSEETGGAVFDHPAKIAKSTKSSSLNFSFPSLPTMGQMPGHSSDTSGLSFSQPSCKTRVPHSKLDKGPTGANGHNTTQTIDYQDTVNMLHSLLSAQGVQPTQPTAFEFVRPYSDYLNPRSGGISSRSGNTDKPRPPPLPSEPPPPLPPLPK", "experiment": "CDK9/CyclinT1 kinase activity assay (ADP-Glo)", "assay_type": "biochemical", "details": "100 μM ATP, 25° C., 60 minutes; read-out: Enzyme activity data (IC50) CDK9/CyclinT1", "description": "Experimental materials: CDK9/CyclinT1 kinase was purchased from Carna, the ADP-Glo detection kit was purchased from Promega, the PKDTide substrate and kinase reaction buffer were purchased from Signalchem. Nivo Multilabel Analyzer (PerkinElmer).\nas §1, with “used.” for “used. The compounds to be tested were diluted 5-fold to the 8th concentration with a row gun, that is, from 50 μM to 0.65 nM, the concentration of DMSO was 5%, and a double-replicate well experiment was set up.”\nTable 1 provides the enzymatic inhibitory activities of the compounds of the present invention on CDK2/CyclinA2, CDK2/CyclinE1, CDK4/CyclinD1, CDK6/CyclinD1, CDK9/CyclinT1."}}}
{"smiles": "C[C@@]1(O)CCC[C@H]1N1C(=O)CCc2cnc(NC3CCN(S(C)(=O)=O)CC3)nc21", "note": "[Compound 1A]", "values": [{"measurement": "IC50", "setting": "HCC1806 cells", "value": 155, "unit": "nM"}, {"measurement": "IC50", "setting": "CDK2/CyclinE1", "value": 1.19, "unit": "nM"}, {"measurement": "IC50", "setting": "CDK2/CyclinA2", "value": 0.28, "unit": "nM"}, {"measurement": "IC50", "setting": "CDK9/CyclinT1", "value": 110, "unit": "nM"}]}
